Assay [1] has as its target Beta-1 adrenergic receptor (Cavia porcellus) (UniProt B0FL73). In words: Intrinsic activity at beta-1 adrenergic receptor in guinea pig right atria assessed as increase in contraction rate of spontaneously beating right atria relative to isoproterenol.
For assay [2], the target named is Beta-2 adrenergic receptor (Cavia porcellus) (UniProt Q8K4Z4). The following applies: Trachea.
Description: Agonist activity at beta-2 adrenergic receptor in guinea pig tracheal chain assessed as relaxation of spontaneously contracted tracheal smooth muscle
The next assay is filed under the species Cavia porcellus. As to the kind of experiment: Selectivity ratio of ED25 for beta-1 adrenergic receptor in guinea pig right atria to ED50 for beta-2 adrenergic receptor in guinea pig tracheal chain.
For assay [3], the target named is Beta-1 adrenergic receptor (Cavia porcellus) (UniProt B0FL73).
The target is the same in assay [4]. In words: Agonist activity at beta-1 adrenergic receptor in guinea pig right atria assessed as increase in contraction rate of spontaneously beating right atria at 6.3 X 10^-5 M relative to control.
Assay [5] shares this target. In words: Agonist activity at beta-1 adrenergic receptor in guinea pig right atria assessed as increase in contraction rate of spontaneously beating right atria at 1.1 X 10^-5 M relative to control.

Structures are written as SMILES.

Sequence of Beta-2 adrenergic receptor (Cavia porcellus) (Q8K4Z4 whole entry, looked up): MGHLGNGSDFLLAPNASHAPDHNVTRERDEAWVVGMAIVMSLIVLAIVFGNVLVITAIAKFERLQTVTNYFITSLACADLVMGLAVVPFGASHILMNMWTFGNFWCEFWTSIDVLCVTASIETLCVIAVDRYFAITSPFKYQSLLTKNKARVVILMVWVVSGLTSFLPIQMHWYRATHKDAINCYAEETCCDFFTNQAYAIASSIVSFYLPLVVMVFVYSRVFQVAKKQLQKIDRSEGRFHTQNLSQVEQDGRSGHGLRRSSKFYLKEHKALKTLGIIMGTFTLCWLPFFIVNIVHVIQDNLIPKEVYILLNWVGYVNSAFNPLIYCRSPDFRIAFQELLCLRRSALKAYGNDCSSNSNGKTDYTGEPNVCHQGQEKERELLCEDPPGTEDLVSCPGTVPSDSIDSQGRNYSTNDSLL
Sequence of Beta-1 adrenergic receptor (Cavia porcellus) (B0FL73 1-467): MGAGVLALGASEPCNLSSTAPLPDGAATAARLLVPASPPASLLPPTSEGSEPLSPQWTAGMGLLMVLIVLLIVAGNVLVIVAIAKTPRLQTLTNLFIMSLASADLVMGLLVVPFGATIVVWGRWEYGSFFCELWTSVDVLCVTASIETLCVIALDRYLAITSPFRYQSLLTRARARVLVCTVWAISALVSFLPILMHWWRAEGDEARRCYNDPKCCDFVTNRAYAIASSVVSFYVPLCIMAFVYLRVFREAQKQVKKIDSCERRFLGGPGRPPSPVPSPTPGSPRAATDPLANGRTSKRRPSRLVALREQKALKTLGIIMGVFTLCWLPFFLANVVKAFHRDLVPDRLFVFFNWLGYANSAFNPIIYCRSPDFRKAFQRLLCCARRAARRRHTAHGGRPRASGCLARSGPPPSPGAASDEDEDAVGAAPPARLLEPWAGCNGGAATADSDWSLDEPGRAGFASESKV

Consider `CC(C)(C)NCC(O)c1ccc(O)c(CO)c1` (stereo not drawn), for which the Intrinsic activity in assay [1] worked out at 0.7. Besides, in assay [2], the ED50 was 1.1 ×10⁻⁸ M. In the assay listed under Cavia porcellus, the Selectivity ratio was found to be 28. In assay [3], this compound returned an ED25 of 3.1 ×10⁻⁷ M.
Regarding `CC(C)(C)NCC(O)c1ccc(O)c(N)c1` (stereo not drawn), the Selectivity ratio in the assay filed under Cavia porcellus is 5.2.
On to `CC(C)(C)NCC(CO)c1ccc(O)c(CO)c1` (stereo not drawn), for which the Intrinsic activity in assay [1] was 0.25. The compound further registered an ED50 in assay [2] of 4.6 µM. Moreover, the Selectivity ratio in the assay filed under Cavia porcellus is 10. This compound also gave an ED25 in assay [3] of 4.7 ×10⁻⁵ M.
The like results for `CC(C)(C)NCC(O)c1ccc(O)c(NC(N)=O)c1` (stereo not drawn) were, in that order, 0.5, 1.9 ×10⁻⁸ M, 34 and 6.4 ×10⁻⁷ M.
Regarding `CC(C)NCC(O)c1ccc(O)c(O)c1` (stereo not drawn), the ED50 in assay [2] amounted to 0.0071 µM.
Turning to `CC(C)NCC(O)c1ccc(O)cc1` (stereo not drawn), the Intrinsic activity in assay [1] was 0.3. In addition, in assay [2], the ED50 came out at 1.1 ×10⁻⁷ M. Also, in the assay listed under Cavia porcellus, the Selectivity ratio came out at 0.7. In assay [3], this compound showed an ED25 of 7.7 ×10⁻⁸ M.
The like results for `CC(C)(C)NCC(CO)c1ccc(O)c(N)c1` (stereo not drawn) were, in that order, 0.7, 9.6 ×10⁻⁷ M, 1.4 and 1.3 µM.
As to `CC(C)(C)NCC(CO)c1ccc(O)c(NC(N)=O)c1` (stereo not drawn), in assay [1], the Intrinsic activity was determined as 0.3. In assay [2], this compound returned an ED50 of 5.2 ×10⁻⁷ M. Further, in the assay filed under Cavia porcellus, the Selectivity ratio worked out at 18. This compound displayed an ED25 in assay [3] of 9.3 µM.
In assay [2], `CC(C)NCC(C)(O)c1ccc(O)c(O)c1` (stereo not drawn) had an ED50 of 3.4 µM. Moreover, the Activity in assay [4] was 18%.
As for `CC(C)(C)NCC(CO)c1ccc(O)c(O)c1` (stereo not drawn), in assay [1], the Intrinsic activity came to 1. The compound also registered an ED50 in assay [2] of 3.3 ×10⁻⁸ M. The Selectivity ratio in the assay filed under Cavia porcellus stood at 2.9. Also, the ED25 in assay [3] was determined as 9.6 ×10⁻⁸ M.
Turning to `CC(C)(C)NCC(CO)c1ccc(O)c(NS(C)(=O)=O)c1` (stereo not drawn), in assay [5], the Activity worked out at 18%. In assay [2], this compound displayed an ED50 of 6 ×10⁻⁷ M.
For the compound `CC(C)NCC(O)c1ccc(O)c(NS(C)(=O)=O)c1` (stereo not drawn), the Intrinsic activity in assay [1] was determined as 0.7. In assay [2], this compound showed an ED50 of 2.6 ×10⁻⁸ M. For the same compound, the Selectivity ratio in the assay listed under Cavia porcellus stood at 3. In addition, the ED25 in assay [3] stood at 7.6 ×10⁻⁸ M.
In assay [2], `COC(CNC(C)C)c1ccc(O)c(O)c1` (stereo not drawn) displayed an ED50 of 1.6 µM. Besides, the ED25 in assay [3] stood at 3 ×10⁻⁷ M.
With `CC(C)(C)NCC(O)c1ccc(O)c(O)c1` (stereo not drawn), the Intrinsic activity in assay [1] was determined as 1. The ED50 in assay [2] amounted to 0.0013 µM. In addition, the Selectivity ratio in the assay filed under Cavia porcellus came out at 5.5. The compound also showed an ED25 in assay [3] of 0.0071 µM.
For `CC(C)(C)NCC(CO)c1ccc(O)cc1` (stereo not drawn), the Intrinsic activity in assay [1] is 0.3. Moreover, the ED50 in assay [2] worked out at 4.1 µM. The Selectivity ratio in the assay filed under Cavia porcellus turned out to be 24. In assay [3], this compound registered an ED25 of 9.8 ×10⁻⁵ M.

For the origin of these results see ChEMBL document CHEMBL3272119, “Adrenergic agents. 8.1 Synthesis and beta-adrenergic agonist activity of some 3-tert-butylamino-2-(substituted phenyl)-1-propanols” (J Med Chem, 1977).
